According to ChEMBL document CHEMBL1147325, “13C-nmr spectral assignment and evaluation of the cytotoxic potential of rotenone” (1989):
Converted amounts (≈) assume the structure as drawn.

How the values were obtained:
Format in all cases: functional
[1] = Cytotoxicity against human BC1 cells after 72 hrs; settings: BC1, 72 h, read-out: ED50 (the source's name)
Col2 = experiment: Cytotoxicity against human Col2 cells after 72 hrs; settings: Col2, 72 h, read-out: ED50 (the source's name)
HT-1080 = experiment: Cytotoxicity against human HT1080 cells after 48 hrs; settings: HT-1080, 48 h, read-out: ED50 (the source's name)
Lu1 = experiment: Cytotoxicity against human Lu1 cells; settings: read-out: ED50 (the source's name)
SK-MEL-2 = experiment: Cytotoxicity against human SK-MEL-2 cells after 72 hrs; settings: SK-MEL-2, 72 h, read-out: ED50 (the source's name)
KB = experiment: Cytotoxicity against human KB cells after 72 hrs; settings: read-out: ED50 (the source's name)
P388 = experiment: Cytotoxicity against mouse P388 cells after 48 hrs; settings: P388, 48 h, read-out: ED50 (the source's name)

C=C(C)[C@H]1Cc2c(ccc3c2O[C@@H]2COc4cc(OC)c(OC)cc4[C@@H]2C3=O)O1 [ROTENONE]
EC50 [1]: 0.039 µg/mL (≈ 0.0989 µM)
EC50 (Col2): 0.15 µg/mL (≈ 0.38 µM)
EC50 (HT-1080): 0.047 µg/mL (≈ 0.119 µM)
EC50 (Lu1): 0.044 µg/mL (≈ 0.112 µM)
EC50 (SK-MEL-2): 0.092 µg/mL (≈ 0.233 µM)
EC50 (KB): 0.067 µg/mL (≈ 0.17 µM)
EC50 (P388): 0.005 µg/mL (≈ 0.0127 µM)
